The target in one test is T1, SSAO (Homo sapiens, UniProt Q16853).
T1 sequence (Q16853 1-763): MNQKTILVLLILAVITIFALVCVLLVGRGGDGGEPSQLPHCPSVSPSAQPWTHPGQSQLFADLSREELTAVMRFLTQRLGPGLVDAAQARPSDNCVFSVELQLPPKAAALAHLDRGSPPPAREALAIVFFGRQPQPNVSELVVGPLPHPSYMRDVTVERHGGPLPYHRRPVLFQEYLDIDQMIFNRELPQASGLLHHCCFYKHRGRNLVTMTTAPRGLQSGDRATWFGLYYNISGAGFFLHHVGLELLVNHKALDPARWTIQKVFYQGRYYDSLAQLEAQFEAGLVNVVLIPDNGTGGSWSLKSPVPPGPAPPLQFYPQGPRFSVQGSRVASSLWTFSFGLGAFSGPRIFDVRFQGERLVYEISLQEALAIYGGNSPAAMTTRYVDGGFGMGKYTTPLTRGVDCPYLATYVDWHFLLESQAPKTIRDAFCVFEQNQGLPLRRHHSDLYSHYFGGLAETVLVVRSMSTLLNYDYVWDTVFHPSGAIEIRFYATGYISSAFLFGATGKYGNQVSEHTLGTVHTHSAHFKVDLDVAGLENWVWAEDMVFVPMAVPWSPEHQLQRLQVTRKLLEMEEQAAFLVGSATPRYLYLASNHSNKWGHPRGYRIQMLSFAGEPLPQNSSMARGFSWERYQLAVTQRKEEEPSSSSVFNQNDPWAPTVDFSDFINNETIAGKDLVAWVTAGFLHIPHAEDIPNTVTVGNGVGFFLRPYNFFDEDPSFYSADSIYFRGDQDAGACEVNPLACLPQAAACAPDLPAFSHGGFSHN
Kind of test: Substrate turnover by H2O2 release, amplex red coupled fluorometric activity assay (Extended Data Fig. 3a). Type of test: biochemical. The source says: (§1) Specifically, BAPN is oxidized by diamine oxidase (DAO) and semicarbazide-sensitive amine oxidase (SSAO)/vascular adhesion protein 1 (VAP-1) in the vasculature (Extended Data Fig. 3a), which releases hydrogen […] (H2O2) and aldehyde in humans leading to toxicity.
(§2) Data presented as mean values +/− SD. f. […] Data presented as mean values +/− SD. […] Data presented as mean values +/− SD. […] Data presented as mean values +/− SD. Ordinary one-way ANOVA for multiple comparison test performed. Source data

The target of the next test is T2, DAO (Homo sapiens, UniProt P19801).
T2 sequence (P19801 20-751): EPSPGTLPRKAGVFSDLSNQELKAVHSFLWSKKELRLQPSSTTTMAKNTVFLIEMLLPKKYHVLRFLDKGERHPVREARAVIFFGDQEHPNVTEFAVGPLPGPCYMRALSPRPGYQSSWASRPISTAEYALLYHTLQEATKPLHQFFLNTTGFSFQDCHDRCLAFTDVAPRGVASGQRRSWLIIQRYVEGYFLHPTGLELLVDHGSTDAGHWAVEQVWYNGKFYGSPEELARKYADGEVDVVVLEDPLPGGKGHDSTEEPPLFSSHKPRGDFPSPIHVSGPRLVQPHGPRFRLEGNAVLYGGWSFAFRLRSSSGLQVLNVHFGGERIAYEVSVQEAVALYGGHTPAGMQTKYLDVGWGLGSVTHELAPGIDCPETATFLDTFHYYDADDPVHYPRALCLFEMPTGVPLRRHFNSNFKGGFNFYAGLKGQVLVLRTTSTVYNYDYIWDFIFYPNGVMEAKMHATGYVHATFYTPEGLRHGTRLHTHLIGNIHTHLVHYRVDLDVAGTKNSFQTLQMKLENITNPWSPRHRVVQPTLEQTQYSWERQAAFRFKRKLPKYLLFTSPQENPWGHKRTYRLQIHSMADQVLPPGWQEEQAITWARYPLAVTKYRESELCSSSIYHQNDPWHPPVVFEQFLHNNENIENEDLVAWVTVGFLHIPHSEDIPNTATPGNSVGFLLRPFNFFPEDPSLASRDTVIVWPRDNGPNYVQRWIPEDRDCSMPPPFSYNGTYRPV
The description is as above. In kind it is biochemical.
Text: as §1, §2

[1] abbreviates: listed as value 30 (unit not given).
Where [2] appears, read: listed as value 60 (unit not given).
Setting [3] is: listed as value 300 (unit not given).

SMILES strings stand for the structures.

In the case of `Cl.Cl.NC/C=C(\F)CS(=O)(=O)c1cccc2cccnc12.O` [PXS-5505, (Z)-3-fluoro-4-(quinolin-8-ylsulfonyl)but-2-en-1-amine dihydrochloride monohydrate], on SSAO, the “processing as a substrate by SSAO/VAP-1” value is reported as “not processed as a substrate”. Moreover, the “Turnover by SSAO as measured by H2O2 release, mean” value on SSAO (setting [1]) is 1.019; at SSAO (setting [2]), 1.0116; at SSAO (setting [3]) it was 1.1921. For the same molecule, on DAO, the “processing as a substrate by DAO” value is given as “not processed as a substrate”. Also, the “Turnover by DAO as measured by H2O2 release, mean” value at DAO (setting [1]) is 0.9677; at DAO (setting [2]), 0.9315; at DAO (setting [3]), 1.1475.

Values taken from paper PMC10518255, “A first-in-class pan-lysyl oxidase inhibitor impairs stromal remodeling and enhances gemcitabine response and survival in pancreatic cancer” (Nature Cancer, 2023).
